Read-outs that look alike come from different tables or passages of the source.
Key:
Rat PMNL [1] = experiment: Measurement of intracellular calcium in fMLP-stimulated PMNL preloaded with Fura-2; assay type: cell-based; conditions: fMLP stimulus, preincubation with compound 15 minutes at 37°C, concentrations in figure 1
Method: (§1) Rat PMNL were obtained from exudates resulting from peritoneal injection of 6 mL of 8% sodium caseinate. Eighteen hours after injection rats were killed by carbon dioxide inhalation and the peritoneal cavity lavaged with Hank's balanced salt solution (HBSS). After concentration of the PMNL by centrifugation, contaminating erythrocytes were removed by hypotonic lysis. The PMNL were then washed twice by centrifugation (400 x g for 10 minutes) and resuspended in HBSS. Cell viability was greater than 90% by Trypan Blue exclusion and greater than 90% of the cells were PMNL by Wright-Giemsa stain.
Intracellular calcium levels were obtained using Fura-2 as fluorescent indicator (Grynkiewicz et al., 1985). Fura-2 was loaded into PMNL as the acetoxymethyl ester (Fura-2/AM) using the method of Korchak et al., (1988). Specifically, 1 X 10⁸ PMNL/mL were incubated in HBSS with 10 µM Fura-2/AM for 10 minutes at 37°C. The cells suspension was then diluted ten fold with HBSS and further incubated for another 20 minutes. The cells were then centrifuged (400 x g for 8 minutes at 25°C) and the PMNL (1 x 10⁷ cells/mL) resuspended in HBSS containing 1% bovine serum albumin. Cells were stored at room temperature and used within 3 hours.
Intracellular calcium level determinations were made using a dual wavelength spectrofluorometer (Photon Technology International, New Brunswick, NJ). Two mL of PMNL suspension (1 x 10⁷ cells/mL) were stirred magnetically at 37°C. Cells were preincubated with the compounds for 15 minutes at 37°C prior to activation. Where compounds were dissolved in DMSO and added directly, the DMSO never exceeded 0.3% in the final cell suspension. Total change in volume with addition of compounds or vehicle and stimuli never exceeded 3%. Intracellular calcium concentrations were calibrated by setting a maximum calcium level in the cells with the addition of 7 µM ionomycin to PMNL in HBSS containing 1% BSA. This was followed by treatment with 20 mM EGTA for 1 hour to obtain a minimum calcium level. […]

Rat PMNL [2] = experiment: Superoxide anion (SOA) production by stimulated PMNL; assay type: cell-based; conditions: for inhibition of superoxide anion production: PMA and OZ stimulus, result in words; for inhibition at 1 µM / inhibition at 3 µM / inhibition at 10 µM / inhibition at 30 µM / inhibition at 100 µM: Rattus norvegicus, PMNL, inhibition of superoxide anion production; for inhibition at 1 µM: 1 µM compound; for inhibition at 3 µM: 3 µM compound; for inhibition at 10 µM: 10 µM compound; for inhibition at 30 µM: 30 µM compound; for inhibition at 100 µM: 100 µM compound
Method: as §1
Aliquots (50 µl) of a rat PMNL suspension (2 x 10⁷ cells/mL in HBSS) were incubated with 50 µl of HBSS containing vehicle (0.3% DMSO) or compound for 30 minutes at 37°C as above. One hundred microliters of buffer containing 5.98 mg/mL of cytochrome C (Sigma Type III) and 0.1 mg/mL catalase, plus the compounds where appropriate, were then added to each sample. A blank for spectrophotometric measurement, containing unstimulated cells in the presence of cytochrome C, catalase and SOD, was also prepared. To activate the PMNL, 75 µl of PMA or OZ were added to achieve the final concentration of cell activator (plus vehicle or inhibitor as described above for MPO release) and the cells further incubated at 37°C for 60 minutes. The activation was terminated by centrifugation at 600 x g for 5 minutes at 4°C. Aliquots (200 µl) of supernatant were then transferred to a second, flat-well microtiter plate and measured spectrophotometrically at 550 nm. […]

[3] = PMA stimulus, read-out: PMA/SOA
[4] = opsonized zymosan stimulus, read-out: OZ/SOA

| SMILES | suppression of the second wave of intracellular calcium changes (Rat PMNL [1]) | inhibition of superoxide anion production (Rat PMNL [2]) | inhibition at 1 µM (Rat PMNL [2]; [3]) [%] | inhibition at 3 µM (Rat PMNL [2]; [3]) [%] | inhibition at 10 µM (Rat PMNL [2]; [3]) [%] | inhibition at 30 µM (Rat PMNL [2]; [3]) [%] | inhibition at 100 µM (Rat PMNL [2]; [3]) [%] | inhibition at 1 µM (Rat PMNL [2]; [4]) [%] | inhibition at 3 µM (Rat PMNL [2]; [4]) [%] | inhibition at 10 µM (Rat PMNL [2]; [4]) [%] | inhibition at 30 µM (Rat PMNL [2]; [4]) [%] | inhibition at 100 µM (Rat PMNL [2]; [4]) [%] |
| --- | --- | --- | --- | --- | --- | --- | --- | --- | --- | --- | --- | --- |
| O=C(C#Cc1ccncc1)c1ccccc1 [MDL 101,098, 1-Phenyl-3-(4-pyridinyl)-2-propyne-1-one] | selective concentration-dependent suppression | inhibited in a dose dependent fashion | -30.7 | -4.3 | 29.1 | 70 | 97.2 | -18 | -7.5 | 20.3 | 61.5 | 115 |
| CN(C)c1ccc(C(=O)C#Cc2ccncc2)cc1 [MDL 102,175, 1-(4-Dimethylaminophenyl)-3-(4-pyridinyl)-2-propyne-1-one] | selective concentration-dependent suppression | inhibited in a dose dependent fashion | -20.2 | 13.5 | 49.7 | 77.7 | 100 | -15 | 15.4 | 44.1 | 75.7 | 89.8 |

— EP0476645B1, “Calcium uptake inhibitors” (MERRELL DOW PHARMACEUTICALS INC., priority 1990, dated 1992)
